Experimental data published in US10407422B2, “Triazolopyridine inhibitors of myeloperoxidase” (priority 2015, dated 2019).
pIC50: −log10 of the molar value.

What was measured:
myeloperoxidase (MPO) [1] = target: T1, myeloperoxidase (MPO) (Homo sapiens (Human), UniProt P05164); experiment: MPO peroxidation assay (Amplex Red assay); type: biochemical; details: potency range class
Outline: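 IC50 values come from a four-parameter fit of rates taken from the linear 180-540 s portion of a 15 min kinetic read of resorufin (Ex 535/Em 590 nm). Amplex Red (200 μM) plus 10 mM H2O2 was added after a 10 min room-temperature preincubation of inhibitor with 200 pM MPO and 40 nM H2O2 in 100 mM KPi, pH 7.4.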

myeloperoxidase (MPO) [2] = target: T1, myeloperoxidase (MPO); experiment: MPO chlorination assay (APF assay); type: biochemical; details: potency range class
Outline: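 Chlorinating activity followed by APF cleavage to fluorescein (485/535 nm, 3 min kinetic read) after adding APF and 10 μM H2O2. Beforehand, 200 pM enzyme, compound and 120 mM NaCl sat 10 min at room temperature in 100 mM KPi, pH 7.4. Initial-rate slopes gave % inhibition; IC50 by Hill-slope fit.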

T1 sequence (P05164 49-745): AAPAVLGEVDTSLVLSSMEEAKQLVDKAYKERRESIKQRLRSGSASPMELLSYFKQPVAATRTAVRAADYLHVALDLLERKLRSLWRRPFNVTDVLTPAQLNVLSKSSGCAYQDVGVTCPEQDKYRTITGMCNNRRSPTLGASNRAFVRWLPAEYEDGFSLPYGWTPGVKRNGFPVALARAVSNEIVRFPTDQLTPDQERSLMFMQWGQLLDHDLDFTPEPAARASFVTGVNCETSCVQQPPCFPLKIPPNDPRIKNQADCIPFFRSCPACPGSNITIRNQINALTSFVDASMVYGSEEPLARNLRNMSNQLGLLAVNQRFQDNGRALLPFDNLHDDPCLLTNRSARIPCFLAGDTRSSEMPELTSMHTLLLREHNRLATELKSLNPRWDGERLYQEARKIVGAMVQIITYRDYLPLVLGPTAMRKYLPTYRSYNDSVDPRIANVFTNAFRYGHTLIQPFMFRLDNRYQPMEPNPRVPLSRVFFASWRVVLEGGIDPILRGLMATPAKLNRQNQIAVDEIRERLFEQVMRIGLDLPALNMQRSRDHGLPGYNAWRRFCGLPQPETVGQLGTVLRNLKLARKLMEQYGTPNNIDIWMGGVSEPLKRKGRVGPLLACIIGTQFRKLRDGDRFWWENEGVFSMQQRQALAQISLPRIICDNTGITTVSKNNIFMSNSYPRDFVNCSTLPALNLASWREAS

Q: Which results are given for `Cc1nnc(C(C)NC(=O)c2ccc(Cn3cc(Cc4cc(N)nc5[nH]nnc45)cn3)cc2)[nH]1` (stereo not drawn) [Example 95, 4-{[4-({5-Amino-3H-[1,2,3]triazolo[4,5-b]pyridin-7-yl}methyl)-1H-pyrazol-1-yl]methyl}-N-[1-(5-methyl-4H-1,2,4-triazol-3-yl)ethyl]benzamide]?
A: pIC50 (myeloperoxidase (MPO) [1]): 6.00 to 7.00; pIC50 (myeloperoxidase (MPO) [2]): 6.00 to 7.00

Q: Which results are given for `Nc1cc(Cc2cnn(Cc3ccc(C(=O)N4CCOCC4)cc3)c2)c2nn[nH]c2n1` [Example 96, 7-[(1-{[4-(Morpholine-4-carbonyl)phenyl]methyl}-1H-pyrazol-4-yl)methyl]-3H-[1,2,3]triazolo[4,5-b]pyridin-5-amine]?
A: pIC50 (myeloperoxidase (MPO) [1]): 7.00 to 9.00; pIC50 (myeloperoxidase (MPO) [2]): 6.00 to 7.00

Q: With `COc1cccc(Cn2cc(Cc3cc(N)nc4[nH]nnc34)cn2)c1` [Example 97, 7-((1-(3-Methoxybenzyl)-1H-pyrazol-4-yl)methyl)-3H-[1,2,3]triazolo[4,5-b]pyridin-5-amine] as the compound, how does the pIC50 (myeloperoxidase (MPO) [1]) read?
A: 7.00 to 9.00

Q: And the pIC50 (myeloperoxidase (MPO) [2])?
A: 7.00 to 9.00

Q: With `Nc1cc(Cc2cnn(Cc3cccc(OC4CC4)c3)c2)c2nn[nH]c2n1` [Example 98, 7-((1-(3-Cyclopropoxybenzyl)-1H-pyrazol-4-yl)methyl)-3H-[1,2,3]triazolo[4,5-b]pyridin-5-amine] as the compound, how does the pIC50 (myeloperoxidase (MPO) [1]) read?
A: 7.00 to 9.00

Q: What about the pIC50 (myeloperoxidase (MPO) [2]) of the same compound?
A: 7.00 to 9.00

Q: How did the pIC50 (myeloperoxidase (MPO) [1]) turn out when `Nc1cc(Cc2cnn(Cc3cccc(OCc4ccccc4)c3)c2)c2nn[nH]c2n1` [Example 99, 7-((1-(3-(Benzyloxy)benzyl)-1H-pyrazol-4-yl)methyl)-3H-[1,2,3]triazolo[4,5-b]pyridin-5-amine] was run?
A: 7.00 to 9.00

Q: What about the pIC50 (myeloperoxidase (MPO) [2]) of the same compound?
A: 7.00 to 9.00

Q: What does the source list for `Cn1ccc(-c2cccc(Cn3cc(Cc4cc(N)nc5[nH]nnc45)cn3)c2)n1` [Example 100, 7-((1-(3-(1-Methyl-1H-pyrazol-3-yl)benzyl)-1H-pyrazol-4-yl)methyl)-3H-[1,2,3]triazolo[4,5-b]pyridin-5-amine]?
A: pIC50 (myeloperoxidase (MPO) [1]): 7.00 to 9.00; pIC50 (myeloperoxidase (MPO) [2]): 7.00 to 9.00

Q: Which results are given for `Nc1cc(Cc2cnn(Cc3cccc(Br)c3)c2)c2nn[nH]c2n1` [Example 101, 7-((1-(3-Bromobenzyl)-1H-pyrazol-4-yl)methyl)-3H-[1,2,3]triazolo[4,5-b]pyridin-5-amine]?
A: pIC50 (myeloperoxidase (MPO) [1]): 7.00 to 9.00; pIC50 (myeloperoxidase (MPO) [2]): 7.00 to 9.00

Q: How did the pIC50 (myeloperoxidase (MPO) [1]) turn out when `Nc1cc(Cc2cnn(Cc3cccnc3)c2)c2nn[nH]c2n1` [Example 102, 7-((1-(Pyridin-3-ylmethyl)-1H-pyrazol-4-yl)methyl)-3H-[1,2,3]triazolo[4,5-b]pyridin-5-amine] was run?
A: 7.00 to 9.00

Q: And the pIC50 (myeloperoxidase (MPO) [2])?
A: 6.00 to 7.00

Q: What does the source list for `Nc1cc(Cc2cnn(Cc3ccc(C(F)(F)F)cc3)c2)c2nn[nH]c2n1` [Example 103, 7-((1-(4-(Trifluoromethyl)benzyl)-1H-pyrazol-4-yl)methyl)-3H-[1,2,3]triazolo[4,5-b]pyridin-5-amine]?
A: pIC50 (myeloperoxidase (MPO) [1]): 6.00 to 7.00; pIC50 (myeloperoxidase (MPO) [2]): 6.00 to 7.00

Q: With `Nc1cc(Cc2cnn(Cc3ccc(OC(F)F)cc3)c2)c2nn[nH]c2n1` [Example 104, 7-((1-(4-(Difluoromethoxy)benzyl)-1H-pyrazol-4-yl)methyl)-3H-[1,2,3]triazolo[4,5-b]pyridin-5-amine] as the compound, how does the pIC50 (myeloperoxidase (MPO) [1]) read?
A: 7.00 to 9.00

Q: And the pIC50 (myeloperoxidase (MPO) [2])?
A: 6.00 to 7.00

Q: How did the pIC50 (myeloperoxidase (MPO) [1]) turn out when `COc1ccc(-c2ccc(Cn3cc(Cc4cc(N)nc5[nH]nnc45)cn3)cc2)cn1` [Example 105, 7-((1-(4-(6-Methoxypyridin-3-yl)benzyl)-1H-pyrazol-4-yl)methyl)-3H-[1,2,3]triazolo[4,5-b]pyridin-5-amine] was run?
A: 6.00 to 7.00

Q: And the pIC50 (myeloperoxidase (MPO) [2])?
A: 6.00 to 7.00

Q: `Nc1cc(Cc2cnn(Cc3cccc(Oc4ccccc4)c3)c2)c2nn[nH]c2n1` [Example 106, 7-((1-(3-Phenoxybenzyl)-1H-pyrazol-4-yl)methyl)-3H-[1,2,3]triazolo[4,5-b]pyridin-5-amine] was tested. Which pIC50 (myeloperoxidase (MPO) [1]) did it give?
A: 7.00 to 9.00

Q: What about the pIC50 (myeloperoxidase (MPO) [2]) of the same compound?
A: 7.00 to 9.00

Q: Which results are given for `Nc1cc(Cc2cnn(Cc3cn(Cc4ccccc4)nn3)c2)c2nn[nH]c2n1` [Example 107, 7-((1-((1-Benzyl-1H-1,2,3-triazol-4-yl)methyl)-1H-pyrazol-4-yl)methyl)-3H-[1,2,3]triazolo[4,5-b]pyridin-5-amine]?
A: pIC50 (myeloperoxidase (MPO) [1]): 7.00 to 9.00; pIC50 (myeloperoxidase (MPO) [2]): 6.00 to 7.00

Q: Which results are given for `Nc1cc(Cc2cnn(Cc3ccc(CN4CCOCC4)cc3)c2)c2nn[nH]c2n1` [Example 108, 7-((1-(4-(Morpholinomethyl)benzyl)-1H-pyrazol-4-yl)methyl)-3H-[1,2,3]triazolo[4,5-b]pyridin-5-amine]?
A: pIC50 (myeloperoxidase (MPO) [1]): 7.00 to 9.00; pIC50 (myeloperoxidase (MPO) [2]): 6.00 to 7.00

Q: What does the source list for `Nc1cc(Cc2cnn(Cc3ccc(Cn4cccn4)cc3)c2)c2nn[nH]c2n1` [Example 109, 7-((1-(4-((1H-Pyrazol-1-yl)methyl)benzyl)-1H-pyrazol-4-yl)methyl)-3H-[1,2,3]triazolo[4,5-b]pyridin-5-amine]?
A: pIC50 (myeloperoxidase (MPO) [1]): 7.00 to 9.00; pIC50 (myeloperoxidase (MPO) [2]): 6.00 to 7.00

Q: Which results are given for `Nc1cc(Cc2cnn(Cc3ccc(Cn4ccnc4)cc3)c2)c2nn[nH]c2n1` [Example 110, 7-((1-(4-((1H-Imidazol-1-yl)methyl)benzyl)-1H-pyrazol-4-yl)methyl)-3H-[1,2,3]triazolo[4,5-b]pyridin-5-amine]?
A: pIC50 (myeloperoxidase (MPO) [1]): 7.00 to 9.00; pIC50 (myeloperoxidase (MPO) [2]): 7.00 to 9.00

Q: With `Nc1cc(Cc2cnn(Cc3ccc(N4CCOCC4)cc3)c2)c2nn[nH]c2n1` [Example 111, 7-((1-(4-Morpholinobenzyl)-1H-pyrazol-4-yl)methyl)-3H-[1,2,3]triazolo[4,5-b]pyridin-5-amine] as the compound, how does the pIC50 (myeloperoxidase (MPO) [1]) read?
A: 5.00 to 6.00

Q: And the pIC50 (myeloperoxidase (MPO) [2])?
A: 6.00 to 7.00

Q: With `CN1CCN(c2ccc(Cn3cc(Cc4cc(N)nc5[nH]nnc45)cn3)cc2)CC1` [Example 112, 7-((1-(4-(4-Methylpiperazin-1-yl)benzyl)-1H-pyrazol-4-yl)methyl)-3H-[1,2,3]triazolo[4,5-b]pyridin-5-amine] as the compound, how does the pIC50 (myeloperoxidase (MPO) [1]) read?
A: 7.00 to 9.00

Q: What about the pIC50 (myeloperoxidase (MPO) [2]) of the same compound?
A: 6.00 to 7.00

Q: With `CC(C)(C)c1ccc(Cn2cc(Cc3cc(N)nc4[nH]nnc34)cn2)cc1` [Example 113, 7-((1-(4-(tert-Butyl)benzyl)-1H-pyrazol-4-yl)methyl)-3H-[1,2,3]triazolo[4,5-b]pyridin-5-amine] as the compound, how does the pIC50 (myeloperoxidase (MPO) [1]) read?
A: 7.00 to 9.00

Q: What about the pIC50 (myeloperoxidase (MPO) [2]) of the same compound?
A: 6.00 to 7.00

Q: With `Cc1nn(-c2ccccc2)nc1Cn1cc(Cc2cc(N)nc3[nH]nnc23)cn1` [Example 114, 7-((1-((5-Methyl-2-phenyl-2H-1,2,3-triazol-4-yl)methyl)-1H-pyrazol-4-yl)methyl)-3H-[1,2,3]triazolo[4,5-b]pyridin-5-amine] as the compound, how does the pIC50 (myeloperoxidase (MPO) [1]) read?
A: 7.00 to 9.00

Q: What about the pIC50 (myeloperoxidase (MPO) [2]) of the same compound?
A: 6.00 to 7.00

Q: What does the source list for `Nc1cc(Cc2cnn(Cc3cnn(-c4ccccn4)c3)c2)c2nn[nH]c2n1` [Example 115, 7-((1-((1-(Pyridin-2-yl)-1H-pyrazol-4-yl)methyl)-1H-pyrazol-4-yl)methyl)-3H-[1,2,3]triazolo[4,5-b]pyridin-5-amine]?
A: pIC50 (myeloperoxidase (MPO) [1]): 7.00 to 9.00; pIC50 (myeloperoxidase (MPO) [2]): 6.00 to 7.00

Q: Which results are given for `Nc1cc(Cc2cnn(Cc3cn(-c4ccccc4)nn3)c2)c2nn[nH]c2n1` [Example 116, 7-((1-((1-Phenyl-1H-1,2,3-triazol-4-yl)methyl)-1H-pyrazol-4-yl)methyl)-3H-[1,2,3]triazolo[4,5-b]pyridin-5-amine]?
A: pIC50 (myeloperoxidase (MPO) [1]): 7.00 to 9.00; pIC50 (myeloperoxidase (MPO) [2]): 6.00 to 7.00

Q: How did the pIC50 (myeloperoxidase (MPO) [1]) turn out when `Nc1cc(Cc2cnn(Cc3ccc(Cl)cc3Cl)c2)c2nn[nH]c2n1` [Example 117, 7-((1-(2,4-Dichlorobenzyl)-1H-pyrazol-4-yl)methyl)-3H-[1,2,3]triazolo[4,5-b]pyridin-5-amine] was run?
A: 7.00 to 9.00

Q: And the pIC50 (myeloperoxidase (MPO) [2])?
A: 6.00 to 7.00

Q: With `Nc1cc(Cc2cnn(CC3Cc4ccccc4C3)c2)c2nn[nH]c2n1` [Example 118, 7-((1-((2,3-Dihydro-1H-inden-2-yl)methyl)-1H-pyrazol-4-yl)methyl)-3H-[1,2,3]triazolo[4,5-b]pyridin-5-amine] as the compound, how does the pIC50 (myeloperoxidase (MPO) [1]) read?
A: 7.00 to 9.00

Q: And the pIC50 (myeloperoxidase (MPO) [2])?
A: 7.00 to 9.00
